Results from patent publication US20220187282A1, “CARDIOMYOCYTE PROLIFERATION” (The Council of the Queensland Institute of Medical Research, priority 2019, published 2022).
Where two headings read alike, the source gives them in different places.

How the values were obtained:
Assay type in all cases: biochemical
kinases [1] = biological target: kinases (Homo sapiens, UniProt Q86YV6); conditions: MYLK4 FRET-Lantha SP; Test Conc(μM) 1
kinases [2] = biological target: kinases (Homo sapiens, UniProt O75747); conditions: PIK3C2G FRET-Adapta SP; Test Conc(μM):ATP Conc(μM) 1:10
Chain of kinases (Homo sapiens, UniProt O75747) (O75747 whole entry): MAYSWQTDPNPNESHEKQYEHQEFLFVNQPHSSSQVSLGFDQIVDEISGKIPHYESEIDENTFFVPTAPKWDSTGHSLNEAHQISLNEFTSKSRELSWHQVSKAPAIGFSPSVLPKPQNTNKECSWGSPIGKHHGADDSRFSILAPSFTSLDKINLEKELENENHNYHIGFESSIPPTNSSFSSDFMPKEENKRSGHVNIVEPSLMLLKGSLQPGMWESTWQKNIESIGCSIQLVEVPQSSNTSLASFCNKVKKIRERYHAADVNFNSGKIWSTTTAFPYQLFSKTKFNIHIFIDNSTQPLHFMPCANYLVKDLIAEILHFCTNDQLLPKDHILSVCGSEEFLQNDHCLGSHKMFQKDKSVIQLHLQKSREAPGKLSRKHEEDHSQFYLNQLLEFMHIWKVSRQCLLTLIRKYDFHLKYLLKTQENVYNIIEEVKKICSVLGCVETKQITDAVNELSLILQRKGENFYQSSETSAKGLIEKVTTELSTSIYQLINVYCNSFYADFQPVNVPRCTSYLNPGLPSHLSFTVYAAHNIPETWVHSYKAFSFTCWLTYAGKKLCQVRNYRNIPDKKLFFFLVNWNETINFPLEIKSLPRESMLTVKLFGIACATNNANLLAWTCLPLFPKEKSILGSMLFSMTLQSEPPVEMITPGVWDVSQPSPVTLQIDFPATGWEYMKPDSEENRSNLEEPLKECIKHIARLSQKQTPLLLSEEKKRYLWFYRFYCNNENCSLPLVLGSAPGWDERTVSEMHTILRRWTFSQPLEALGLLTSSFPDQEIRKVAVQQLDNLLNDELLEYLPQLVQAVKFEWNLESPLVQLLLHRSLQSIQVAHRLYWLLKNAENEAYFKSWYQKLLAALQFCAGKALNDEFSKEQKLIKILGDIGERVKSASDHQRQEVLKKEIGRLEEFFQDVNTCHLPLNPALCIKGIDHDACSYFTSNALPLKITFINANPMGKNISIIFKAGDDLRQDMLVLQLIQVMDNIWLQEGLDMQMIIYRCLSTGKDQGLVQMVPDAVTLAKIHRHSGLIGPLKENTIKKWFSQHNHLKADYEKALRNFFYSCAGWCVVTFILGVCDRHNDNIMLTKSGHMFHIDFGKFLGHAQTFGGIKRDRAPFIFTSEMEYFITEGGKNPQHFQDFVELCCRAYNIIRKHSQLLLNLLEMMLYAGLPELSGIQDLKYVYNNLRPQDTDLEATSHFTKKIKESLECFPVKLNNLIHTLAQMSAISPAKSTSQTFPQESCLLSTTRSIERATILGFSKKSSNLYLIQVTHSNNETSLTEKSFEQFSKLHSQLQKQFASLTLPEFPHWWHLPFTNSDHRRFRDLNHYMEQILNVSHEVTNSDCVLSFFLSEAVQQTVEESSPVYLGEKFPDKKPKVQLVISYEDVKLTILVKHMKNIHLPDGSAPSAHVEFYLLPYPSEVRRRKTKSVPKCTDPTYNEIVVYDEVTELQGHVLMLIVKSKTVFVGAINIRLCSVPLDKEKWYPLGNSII

kinases [3] = biological target: kinases (Homo sapiens, UniProt P80192); conditions: MAP3K9 (MLK1) FRET-Z-Lyte SP; Test Conc(μM):ATP Conc(μM) 1:75
kinases [4] = biological target: kinases (Homo sapiens, UniProt P54762); conditions: EPHB1 FRET-Z-Lyte SP; Test Conc(μM):ATP Conc(μM) 1:50
kinases [5] = biological target: kinases (Homo sapiens, UniProt Q9Y572); conditions: RIPK3 FRET-Lantha SP; Test Conc(μM) 1
kinases [6] = biological target: kinases (Homo sapiens, UniProt P00519); conditions: ABL1 Hu Phos FRET-Z-Lyte SP; Test Conc(μM):ATP Conc(μM) 1:10
kinases [7] = biological target: kinases (Homo sapiens, UniProt O75914); conditions: PAK3 FRET-Z-Lyte SP; Test Conc(μM):ATP Conc(μM) 1:100
kinases [8] = biological target: kinases (Homo sapiens, UniProt Q9BXA7); conditions: STK22D (TSSK1) FRET-Z-Lyte SP; Test Conc(μM):ATP Conc(μM) 1:10
kinases [9] = biological target: kinases (Homo sapiens, UniProt P78368); conditions: CSNK1G2 (CK1gamma2) Z-Lyte SP; Test Conc(μM):ATP Conc(μM) 1:5
kinases [10] = biological target: kinases (Homo sapiens, UniProt P45983)
Chain of kinases (Homo sapiens, UniProt P45983) (P45983 whole entry): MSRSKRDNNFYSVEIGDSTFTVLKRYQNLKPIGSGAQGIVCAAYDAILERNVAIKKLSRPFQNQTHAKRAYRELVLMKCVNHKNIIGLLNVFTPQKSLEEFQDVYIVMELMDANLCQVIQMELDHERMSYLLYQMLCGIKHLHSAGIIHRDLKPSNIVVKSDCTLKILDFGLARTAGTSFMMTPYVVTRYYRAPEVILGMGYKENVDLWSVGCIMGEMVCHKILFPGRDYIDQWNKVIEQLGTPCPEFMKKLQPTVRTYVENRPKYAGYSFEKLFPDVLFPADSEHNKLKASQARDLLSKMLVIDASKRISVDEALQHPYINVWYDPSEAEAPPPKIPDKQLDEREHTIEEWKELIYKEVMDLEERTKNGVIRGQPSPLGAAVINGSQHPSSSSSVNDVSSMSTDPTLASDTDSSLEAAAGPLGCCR

kinases [11] = biological target: kinases (Homo sapiens, UniProt P10721); conditions: KIT *Mn* FRET-Z-Lyte SP
Chain of kinases (Homo sapiens, UniProt P10721) (P10721 26-976): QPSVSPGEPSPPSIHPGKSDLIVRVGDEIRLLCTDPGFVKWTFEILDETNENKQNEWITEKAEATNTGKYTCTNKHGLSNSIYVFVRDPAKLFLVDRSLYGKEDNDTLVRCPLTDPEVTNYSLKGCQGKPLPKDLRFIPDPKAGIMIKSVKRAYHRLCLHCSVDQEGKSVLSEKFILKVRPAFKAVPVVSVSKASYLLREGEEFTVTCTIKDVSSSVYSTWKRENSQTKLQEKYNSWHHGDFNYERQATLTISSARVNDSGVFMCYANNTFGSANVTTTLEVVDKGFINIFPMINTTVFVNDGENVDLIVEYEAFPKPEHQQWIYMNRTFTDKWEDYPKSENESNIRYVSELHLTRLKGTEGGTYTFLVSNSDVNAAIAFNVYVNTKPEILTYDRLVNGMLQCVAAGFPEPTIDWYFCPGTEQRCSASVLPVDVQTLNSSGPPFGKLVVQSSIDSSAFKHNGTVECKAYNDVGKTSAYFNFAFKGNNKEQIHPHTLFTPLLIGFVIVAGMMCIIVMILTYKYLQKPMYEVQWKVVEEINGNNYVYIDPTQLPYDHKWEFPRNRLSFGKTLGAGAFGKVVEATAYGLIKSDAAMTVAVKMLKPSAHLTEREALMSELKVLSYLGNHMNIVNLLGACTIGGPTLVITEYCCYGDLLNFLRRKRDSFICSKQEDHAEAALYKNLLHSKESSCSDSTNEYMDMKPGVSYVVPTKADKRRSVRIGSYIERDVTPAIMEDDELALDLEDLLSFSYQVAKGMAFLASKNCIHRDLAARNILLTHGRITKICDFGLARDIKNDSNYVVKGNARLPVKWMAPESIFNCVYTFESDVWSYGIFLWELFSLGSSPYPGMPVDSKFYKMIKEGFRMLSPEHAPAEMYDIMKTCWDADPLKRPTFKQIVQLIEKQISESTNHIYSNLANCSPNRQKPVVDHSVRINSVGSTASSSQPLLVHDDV

kinases [12] = biological target: kinases (Homo sapiens, UniProt Q16832); conditions: DDR2 Hu Bind FRET-Lantha SP; Test Conc(μM) 1
kinases [13] = biological target: kinases (Homo sapiens, UniProt P50613); conditions: CDK7/cyclin H/MNAT1 Adapta SP; Test Conc(μM):ATP Conc(μM) 1:150
kinases [14] = biological target: kinases (Homo sapiens, UniProt P49761); conditions: CLK3 FRET-Z-Lyte SP; Test Conc(μM):ATP Conc(μM) 1:150
Chain of kinases (Homo sapiens, UniProt P49761) (P49761 whole entry): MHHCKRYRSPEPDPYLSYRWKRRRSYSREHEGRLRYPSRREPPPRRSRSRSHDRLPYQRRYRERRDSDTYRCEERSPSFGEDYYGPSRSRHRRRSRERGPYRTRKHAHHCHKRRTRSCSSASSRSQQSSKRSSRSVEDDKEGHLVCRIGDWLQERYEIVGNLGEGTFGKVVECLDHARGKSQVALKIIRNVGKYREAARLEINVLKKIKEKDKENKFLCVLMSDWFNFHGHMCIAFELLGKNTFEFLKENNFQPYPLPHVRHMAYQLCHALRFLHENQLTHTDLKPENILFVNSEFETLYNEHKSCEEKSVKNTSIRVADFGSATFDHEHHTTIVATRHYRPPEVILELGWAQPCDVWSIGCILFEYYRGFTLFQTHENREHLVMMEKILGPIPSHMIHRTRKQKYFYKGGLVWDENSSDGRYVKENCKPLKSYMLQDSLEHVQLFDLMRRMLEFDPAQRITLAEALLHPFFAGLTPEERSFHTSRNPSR

kinases [15] = biological target: kinases (Homo sapiens, UniProt O00443); conditions: PIK3C2A FRET-Adapta SP; Test Conc(μM):ATP Conc(μM) 1:25
kinases [16] = biological target: kinases (Homo sapiens, UniProt P17612); conditions: PRKACA (PKA) FRET-Z-Lyte SP; Test Conc(μM):ATP Conc(μM) 1:5
kinases [17] = biological target: kinases (Homo sapiens, UniProt Q8IU85); conditions: CAMK1D FRET-Z-Lyte SP; Test Conc(μM):ATP Conc(μM) 1:25
kinases [18] = biological target: kinases (Homo sapiens, UniProt Q9Y2K2); conditions: SIK3 FRET-Lantha SP; Test Conc(μM) 1
kinases [19] = biological target: kinases (Homo sapiens, UniProt Q02763); conditions: TEK (Tie2) *Mn* FRET-Z-Lyte SP; Test Conc(μM):ATP Conc(μM) 1:10
kinases [20] = biological target: kinases (Homo sapiens, UniProt P07333); conditions: CSF1R (FMS) FRET-Z-Lyte SP; Test Conc(μM):ATP Conc(μM) 1:500
Chain of kinases (Homo sapiens, UniProt P07333) (P07333 20-972): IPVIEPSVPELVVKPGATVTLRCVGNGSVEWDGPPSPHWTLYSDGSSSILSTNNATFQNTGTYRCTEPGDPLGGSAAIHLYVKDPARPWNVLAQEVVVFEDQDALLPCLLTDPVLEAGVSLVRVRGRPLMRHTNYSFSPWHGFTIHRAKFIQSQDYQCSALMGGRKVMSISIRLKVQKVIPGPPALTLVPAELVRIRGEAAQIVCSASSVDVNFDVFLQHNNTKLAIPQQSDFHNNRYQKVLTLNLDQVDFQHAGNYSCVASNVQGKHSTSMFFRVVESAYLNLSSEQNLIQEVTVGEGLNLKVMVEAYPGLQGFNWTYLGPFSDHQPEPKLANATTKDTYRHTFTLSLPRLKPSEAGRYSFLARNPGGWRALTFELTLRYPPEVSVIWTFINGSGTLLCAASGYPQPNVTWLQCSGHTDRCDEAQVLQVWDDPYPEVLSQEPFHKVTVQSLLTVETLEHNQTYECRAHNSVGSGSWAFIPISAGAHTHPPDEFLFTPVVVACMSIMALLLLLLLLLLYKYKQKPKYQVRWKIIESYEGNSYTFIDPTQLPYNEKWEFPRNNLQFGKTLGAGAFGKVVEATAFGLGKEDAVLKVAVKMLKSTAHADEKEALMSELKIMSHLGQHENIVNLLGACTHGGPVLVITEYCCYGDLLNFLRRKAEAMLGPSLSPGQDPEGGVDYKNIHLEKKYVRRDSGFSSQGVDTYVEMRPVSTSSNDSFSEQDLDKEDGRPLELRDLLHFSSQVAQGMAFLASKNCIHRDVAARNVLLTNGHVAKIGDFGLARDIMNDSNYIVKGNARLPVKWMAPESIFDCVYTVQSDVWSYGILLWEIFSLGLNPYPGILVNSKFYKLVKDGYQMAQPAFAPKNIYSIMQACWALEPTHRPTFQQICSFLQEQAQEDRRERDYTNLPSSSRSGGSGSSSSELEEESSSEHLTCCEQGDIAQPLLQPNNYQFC

kinases [21] = biological target: kinases (Homo sapiens, UniProt P35916); conditions: FLT4 (VEGFR3) *Mn* Z-Lyte SP; Test Conc(μM):ATP Conc(μM) 1:5
kinases [22] = biological target: kinases (Homo sapiens, UniProt P08069); conditions: IGF1R FRET-Z-Lyte SP; Test Conc(μM):ATP Conc(μM) 1:150
kinases [23] = biological target: kinases (Homo sapiens, UniProt P36897); conditions: TGFBR1 (ALK5) FRET-Lantha SP; Test Conc(μM) 1
Chain of kinases (Homo sapiens, UniProt P36897) (P36897 34-503): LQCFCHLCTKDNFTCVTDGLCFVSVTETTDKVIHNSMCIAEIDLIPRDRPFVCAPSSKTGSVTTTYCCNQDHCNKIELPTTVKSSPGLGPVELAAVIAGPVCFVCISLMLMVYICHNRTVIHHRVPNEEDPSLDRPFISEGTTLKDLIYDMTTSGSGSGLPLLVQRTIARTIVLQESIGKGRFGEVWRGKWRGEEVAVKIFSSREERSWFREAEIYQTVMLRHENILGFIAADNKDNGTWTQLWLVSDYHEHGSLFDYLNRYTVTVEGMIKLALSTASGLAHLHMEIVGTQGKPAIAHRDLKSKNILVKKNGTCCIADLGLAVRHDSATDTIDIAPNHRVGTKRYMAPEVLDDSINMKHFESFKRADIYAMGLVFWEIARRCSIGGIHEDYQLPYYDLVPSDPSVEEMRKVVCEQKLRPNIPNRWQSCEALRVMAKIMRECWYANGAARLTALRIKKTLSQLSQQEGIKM

kinases [24] = biological target: kinases (Homo sapiens, UniProt Q99683); conditions: MAP3K5 (ASK1) FRET-Lantha SP; Test Conc(μM) 1
kinases [25] = biological target: kinases (Homo sapiens, UniProt Q86UE8); conditions: TLK2 FRET-Lantha SP; Test Conc(μM) 1
kinases [26] = biological target: kinases (Homo sapiens, UniProt Q9H792); conditions: PEAK1 FRET-Z-Lyte SP; Test Conc(μM):ATP Conc(μM) 1:50
kinases [27] = biological target: kinases (Homo sapiens, UniProt O75460); conditions: ERN1 FRET-Lantha SP; Test Conc(μM) 1
kinases [28] = biological target: kinases (Homo sapiens, UniProt P49840); conditions: GSK3A FRET-Z-Lyte SP; Test Conc(μM):ATP Conc(μM) 1:10
[29] = MAPK8 (JNK1) Cascade Z-Lyte SP, Test Conc(μM):ATP Conc(μM) 1:100
[30] = MAPK8 (JNK1) FRET-Lantha SP, Test Conc(μM) 1

Row | SMILES | Mean Inhib (%) (kinases [1]) | Mean Inhib (%) (kinases [2]) | Mean Inhib (%) (kinases [3]) | Mean Inhib (%) (kinases [4]) | Mean Inhib (%) (kinases [5]) | Mean Inhib (%) (kinases [6]) | Mean Inhib (%) (kinases [7]) | Mean Inhib (%) (kinases [8]) | Mean Inhib (%) (kinases [9]) | Mean Inhib (%) (kinases [10]; [29]) | Mean Inhib (%) (kinases [10]; [30]) | Mean Inhib (%) (kinases [12]) | Mean Inhib (%) (kinases [13]) | Mean Inhib (%) (kinases [14]) | Mean Inhib (%) (kinases [15]) | Mean Inhib (%) (kinases [16]) | Mean Inhib (%) (kinases [17]) | Mean Inhib (%) (kinases [18]) | Mean Inhib (%) (kinases [19]) | Mean Inhib (%) (kinases [20]) | other results
1 | Cc1ccc(NC(=O)c2ccnc(N3CCOCC3)c2)cc1Nc1ccnc(N2CC(C)OC(C)C2)n1 (stereo not shown) [compound 3] | 5.1 | 5.6 | 1.3 | 3.5 | 20.9 | 2.8 | −0.3 | 18.8 | 3.9 | 6.5 | −6.1 | 65.5 | −2.3 | 2.0 | 1.7 | 2.2 | 0.0 | 5.6 | −4.4 | 12.1 | Mean Inhib (%) (kinases [11]; Test Conc(μM):ATP Conc(μM) 1:300): 0.0%; Mean Inhib (%) (kinases [21]): 2.8%; Mean Inhib (%) (kinases [22]): 11.6%; Mean Inhib (%) (kinases [23]): 5.3%; Mean Inhib (%) (kinases [24]): 0.2%; Mean Inhib (%) (kinases [25]): −2.9%; Mean Inhib (%) (kinases [26]): 0.8%; Mean Inhib (%) (kinases [27]): −3.4%; Mean Inhib (%) (kinases [28]): 9.4%
2 | Cc1cc(Oc2ccnc(Nc3ccc(S(N)(=O)=O)cc3)c2)c(-c2ccccn2)nc1C [compound 65] | 14.6 | 0.4 | 3.4 | 47.1 | 76.6 | 85.2 | 23.3 | 12.2 | 5.9 | 16.9 | 7.0 | 1.6 | −2.2 | 5.1 | 8.7 | −4.7 | −7.6 | −4.7 | −7.9 | 20.0 | Mean Inhib (%) (kinases [11]; Test Conc(μM):ATP Conc(μM) 0.25): 8.8%; Mean Inhib (%) (kinases [21]): 2.0%; Mean Inhib (%) (kinases [22]): 6.5%; Mean Inhib (%) (kinases [23]): 99.6%; Mean Inhib (%) (kinases [24]): 6.1%; Mean Inhib (%) (kinases [25]): −4.8%; Mean Inhib (%) (kinases [26]): 55.2%; Mean Inhib (%) (kinases [27]): 1.0%; Mean Inhib (%) (kinases [28]): 3.2%
